The values that follow come from US20170304228A1, “NEW INDICATION OF CINACALCET HCL PHARMACEUTICAL COMPOSITION FOR TREATING CANCER” (LAUNX BIOMEDICAL CO., LTD., priority 2014, published 2017).

Common to all, as to format: cell-based
One data set relates to BCC. The data set can be described thus: Cell viability analysis (WST-1), BCC. The following applies: read-out: survival rate (viability) of cells. As for the experimental part:
(§1) The cell numbers were counted and reseed as 2×10^6 in culture plate/flask. Then, the culture medium were added to a volume of 10 ml, and the cells were cultured for 2-3 days. Then, the cells were suspended for loading into 96-well plates. The number of cells was 3000 and the volume of the culture medium was 100 μl each well.
(§2) Removing the original culture medium from 96-well plate. Then add 100 μl of commercially drug at a concentration of 10 μM per well. After 72 hours, add the diluted WST-1 reagent to the well with 100 μl/well, and the diluted WST-1 reagent was acquired from the dilution of 9:1 medium and WST-1 stock reagent. Finally, the total volume of each well was 200 μl/well. Culture the 96-well plate at 37° C. for 30 to 90 minutes. Detecting and calculate the survival rate of each cancer cells with an ELISA reader at OD450 nm. The lower viability of cancer cells represents better inhibition effect via the Cinacalcet HCl drug. Otherwise, the higher viability of cancer cells represents worse inhibition effect via the Cinacalcet HCl drug.
This inhibition test of Cinacalcet HCl on other cancer cells were using osteosarcoma cell line U2OS (Table 14), skin cancer cell lines A375 and BCC (Table 15). The inhibitory tests of Cinacalcet HCl were performed 4 times for each cell lines and then the average value of the inhibitory tests was calculated.

The subject of the next data set is 786-O. In words: Cell viability analysis (WST-1), 786-O. Particulars: Homo sapiens. As for the experimental part:
as §1, §2
(§3) This inhibition test of Cinacalcet HCl on abdominal-related cancer cells were using bladder cancer cell line TSGH and T24 (Table 3), cervical cancer cell lines HeLa and C-33A (Table 4), renal cancer cell line 786-O (Table 5). The inhibitory tests of Cinacalcet HCl were performed 4 times for each cell lines and then the average value of the inhibitory tests was calculated.
Background: Tetrazolium assays rely on reduction of a dye to a coloured formazan, in cell work by metabolically active cells.

For the next data set, the system named is LoVo. The data set can be described thus: Cell viability analysis (WST-1), LoVo. Particulars: Homo sapiens, read-out: survival rate (viability) of cells. As for the experimental part: as §1, §2
This inhibition test of Cinacalcet HCl on gastrointestinal tract-related cancer cells were using gastric cancer cell lines AGS and MKN-45 (Table 9), hepatic cancer cell lines HepG2 and Hep3B (Table 10), colorectal cancer cell lines HCT116-wt and LoVo (Table 11), pancreatic cancer cell line AsPC-1 and BxPC-3(Table 12), tongue cancer cell line SAS (Table 13). The inhibitory tests of Cinacalcet HCl were performed 4 times for each cell lines and then the average value of the inhibitory tests was calculated.

The nature of data set [1]: Cell viability analysis (WST-1), normal kidney cell line HEK293. The following applies: human, HEK293 cells (normal kidney cell line). As for the experimental part: as §1
as §2, with “Otherwise, the higher viability of cancer cells represents worse inhibition effect via the Cinacalcet HCl drug.” left out
This inhibition test of Cinacalcet HCl on normal cells were using normal kidney cell line HEK293 (Table 16), normal pulmonary epithelial cell lines […] BEAS-2B (Table 17). The inhibitory tests of Cinacalcet HCl were performed 4 times for each cell lines and then the average value of the inhibitory tests was calculated The results were shown in Tables 16 and Tables 17.

The test system of a further data set is HeLa. The data set can be described thus: Cell viability analysis (WST-1), HeLa. Particulars: Homo sapiens, read-out: survival rate (viability) of cells. How it is done:
as §1, §2, §3

Molecules are shown by their SMILES. Structures can show the parent of a compound that is named as a salt. Where two headings read alike, the source gives them in different places.

As to `C[C@@H](NCCCc1cccc(C(F)(F)F)c1)c1cccc2ccccc12` [Cinacalcet HCl, Cinacalcet hydrochloride], the viability at 10 µM in the data set with BCC (72 h, average of tests) was determined as 111%; in the data set with BCC (72 hours, test 0602-30 min), 114%; in the data set on BCC (72 hours, test 0605-10 min), 106%; in the data set on BCC (72 hours, test 0607-10 min), 113%; with 786-O (786-0, 10 μM, 72 hours, test 0524-10 min, read-out: survival rate (viability) of cells) it was 81.3%; with 786-O (786-0, 10 μM, 72 hours, test 0526-10 min, read-out: survival rate (viability) of cells) it was 71.6%. In addition, the viability at 10 µM with 786-O (786-0, 10 μM, 72 hours, test 0529-10 min, read-out: survival rate (viability) of cells) is 80.2%; in the data set with 786-O (786-0, 10 μM, 72 hours, test 0531-10 min, read-out: survival rate (viability) of cells), 87.1%; in the data set with 786-O (786-0, 72 h, 10 μM, average of tests, read-out: survival rate (viability) of cells), 80%; with 786-O (786-0, 72 h, summary, Kidney cancer, 10 μM, read-out: Inhibitory effect), 87.5%; with LoVo (72 h, average of tests) it was 93.4%; in the data set on LoVo (72 hours, test 0616-10 min) it was 73.9%. Moreover, the viability at 10 µM amounted to 125% with LoVo (72 hours, test 0619-10 min); 90.4% with LoVo (72 hours, test 0621-10 min); 84.2% in the data set with LoVo (72 hours, test 0623-10 min); 111% with HeLa (72 h, average of tests); 110% in the data set with HeLa (72 hours, test 0524-10 min); 119% in the data set with HeLa (72 hours, test 0526-10 min). The viability at 10 µM in the data set on HeLa (72 hours, test 0529-10 min) came out at 104%; in the data set with HeLa (72 hours, test 0531-10 min), 113%. Further, the viability at 72 h, 10 µM came to 114% in data set [1] (average of tests, read-out: survival rate (viability) of cells) and 114% in data set [1] (summary, kidney cell lines, read-out: Inhibitory effect).
